Experimental data: patent publication US10364245B2 (CHIESI FARMACEUTICI S.p.A., priority 2017, dated 2019)
Structures can show the parent of a compound that is named as a salt.

Legend:
p38 alpha = target: T1, p38 alpha (Homo sapiens, UniProt Q16539); assay: P38 alpha enzyme inhibition assay (Alphascreen kinase activity assay); format: biochemical; settings: 100 pM p38 alpha, 2 hours preincubation at 25° C., 250 μM ATP, ATF-2 fusion protein; read-out: p38α inhibition
T1 construct: purchased Invitrogen PV3304
T1 sequence (Q16539 whole entry, the tested form may be a part): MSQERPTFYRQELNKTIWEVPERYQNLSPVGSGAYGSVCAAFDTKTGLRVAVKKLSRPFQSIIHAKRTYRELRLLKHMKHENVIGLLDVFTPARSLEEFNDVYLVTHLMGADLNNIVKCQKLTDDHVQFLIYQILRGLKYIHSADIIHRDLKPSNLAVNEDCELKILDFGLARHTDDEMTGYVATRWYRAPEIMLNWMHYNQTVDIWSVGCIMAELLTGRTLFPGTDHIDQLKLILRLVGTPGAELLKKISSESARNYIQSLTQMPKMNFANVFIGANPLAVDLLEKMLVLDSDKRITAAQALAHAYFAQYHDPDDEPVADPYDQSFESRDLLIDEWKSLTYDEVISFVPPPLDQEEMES
How it was run: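 Phosphorylation of ATF-2 fusion protein (0.3 μg/ml) read by AlphaScreen with anti-phospho-ATF2 antibody after 1 h kinase reaction at 25 °C, initiated by 250 μM ATP. Compounds first incubated 2 h at 25 °C with 100 pM p38 alpha in pH 7.5 HEPES buffer, 1% DMSO. IC50 derived from concentration-response data.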

[1] = system: Peripheral Blood Mononuclear Cells (PBMCs), TNFα release; assay: LPS-stimulated PBMC TNFα release assay; format: cell-based; settings: human PBMC, LPS (10 ng/ml), 18 h, compound 1 h before LPS; read-out: LPS-stimulated PBMC TNFα release inhibition
Procedure: LPS-Stimulated PBMC TNFα Release Assay
Peripheral Blood Mononuclear Cells (PBMCs) were isolated from healthy human volunteer blood using a standard density gradient centrifugation technique. Citrated blood was placed onto Histopaque™ and centrifuged. The PBMCs were removed from the density gradient interface and washed in phosphate buffered saline (PBS). The PBMCs were suspended in RPMI 1640 medium (without serum), dispensed into a 96-well plate and incubated at 37° C. for 3 h in a humidified incubator. After incubation, the medium was replaced (with medium containing 1% foetal bovine serum) and the plate incubated at 37° C., for 1 h, in the presence of test compound or the appropriate vehicle. LPS (10 ng/ml), or an appropriate vehicle control, was then added to the cells and the plate returned to the incubator for 18 h. Cell-free supernatants were removed and assayed for TNFα levels using MSD plates on the Sector Imager 6000 (MesoScale).
A dose response curve to each test compound was performed and the effect of compound in each experiment was expressed as a percentage inhibition of the control TNFα release. Dose response curves were plotted and compound potency (IC50) was determined. Compounds were tested in at least three separate experiments.

| Compound | IC50 (p38 alpha) [nM] | IC50 [1] [nM] |
| --- | --- | --- |
| CNC(=O)c1nc(NC(=O)N[C@H]2CC[C@@H](Oc3ccc4nnc([C@]5(C)CCCN5C)n4c3)c3ccccc32)cc(C(C)(C)C)n1 [Example 38, 4-(tert-Butyl)-6-(3-((1S,4R)-4-((3-((S)-1,2-dimethylpyrrolidin-2-yl)-[1,2,4]triazolo[4,3-a]pyridin-6-yl)oxy)-1,2,3,4-tetrahydronaphthalen-1-yl)ureido)-N-methylpyrimidine-2-carboxamide] | < 1 | < 1 |
| CN1CCC[C@]1(C)c1nnc2ccc(O[C@@H]3CC[C@H](NC(=O)Nc4cc(C(C)(C)C)cc(C#N)n4)c4ccccc43)cn12 [Example 39, 1-(4-(tert-Butyl)-6-cyanopyridin-2-yl)-3-((1S,4R)-4-((3-((R)-1,2-dimethylpyrrolidin-2-yl)-[1,2,4]triazolo[4,3-a]pyridin-6-yl)oxy)-1,2,3,4-tetrahydronaphthalen-1-yl)urea] | 1 to 10 | < 1 |
| Cc1nc(NC(=O)N[C@H]2CC[C@@H](Oc3ccc4nnc([C@]5(C)CCCN5C)n4c3)c3ccccc32)cc(C(C)(C)C)n1 [Example 40, 1-(6-(tert-Butyl)-2-methylpyrimidin-4-yl)-3-((1S,4R)-4-((3-((S)-1,2-dimethylpyrrolidin-2-yl)-[1,2,4]triazolo[4,3-a]pyridin-6-yl)oxy)-1,2,3,4-tetrahydronaphthalen-1-yl)urea] | < 1 | 1 to 5 |
| COCc1nc(NC(=O)N[C@H]2CC[C@@H](Oc3ccc4nnc([C@]5(C)CCCN5C)n4c3)c3ccccc32)cc(C(C)(C)C)n1 [Example 43, 1-(6-(tert-Butyl)-2-(methoxymethyl)pyrimidin-4-yl)-3-((1S,4R)-4-((3-((S)-1,2-dimethylpyrrolidin-2-yl)-[1,2,4]triazolo[4,3-a]pyridin-6-yl)oxy)-1,2,3,4-tetrahydronaphthalen-1-yl)urea] | 1 to 10 | 1 to 5 |
| CN1CCC[C@@]1(C)c1nnc2ccc(O[C@@H]3CC[C@H](NC(=O)Nc4cc(C(C)(C)C)ccn4)c4ccccc43)cn12 [Example 44, 1-(4-(tert-Butyl)pyridin-2-yl)-3-((1S,4R)-4-((3-((S)-1,2-dimethylpyrrolidin-2-yl)-[1,2,4]triazolo[4,3-a]pyridin-6-yl)oxy)-1,2,3,4-tetrahydronaphthalen-1-yl)urea] | < 1 | 1 to 5 |
| C[C@H]1CCCCN1c1nnc2ccc(O[C@@H]3CC[C@H](NC(=O)Nc4cc(C(C)(C)C)ncn4)c4ccccc43)cn12 [Example 45, 1-(6-(tert-Butyl)pyrimidin-4-yl)-3-((1S,4R)-4-((3-((S)-2-methylpiperidin-1-yl)-[1,2,4]triazolo[4,3-a]pyridin-6-yl)oxy)-1,2,3,4-tetrahydronaphthalen-1-yl)urea] | < 1 | 1 to 5 |
| CN1CCC[C@H]1c1nnc2ccc(O[C@@H]3CC[C@H](NC(=O)Nc4cc(C(C)(C)C)ncn4)c4ccccc43)cn12 [Example 46, 1-(6-(tert-Butyl)pyrimidin-4-yl)-3-((1S,4R)-4-((3-((S)-1-methylpyrrolidin-2-yl)-[1,2,4]triazolo[4,3-a]pyridine-6-yl)oxy)-1,2,3,4-tetrahydronaphthalene-1-yl)urea Hydrochloride] | < 1 | 1 to 5 |
| CC(C)N1CCC[C@H]1c1nnc2ccc(O[C@@H]3CC[C@H](NC(=O)Nc4cc(C(C)(C)C)ncn4)c4ccccc43)cn12 [Example 47, 1-(6-(tert-Butyl)pyrimidin-4-yl)-3-((1S,4R)-4-((3-((S)-1-isopropylpyrrolidin-2-yl)-[1,2,4]triazolo[4,3-a]pyridine-6-yl)oxy)-1,2,3,4-tetrahydronaphthalene-1-yl)urea Hydrochloride] | < 1 | > 5 |
| CSc1nc(NC(=O)N[C@H]2CC[C@@H](Oc3ccc4nnc([C@]5(C)CCCN5C)n4c3)c3ccccc32)cc(C(C)(C)C)n1 [Example 49, 1-(6-(tert-Butyl)-2-(methylthio)pyrimidin-4-yl)-3-((1S,4R)-4-((3-((S)-1,2-dimethylpyrrolidin-2-yl)-[1,2,4]triazolo[4,3-a]pyridine-6-yl)oxy)-1,2,3,4-tetrahydronaphthalen-1-yl)urea] | 1 to 10 | > 5 |
| Cc1ncc(C(C)(C)C)cc1NC(=O)N[C@H]1CC[C@@H](Oc2ccc3nnc([C@]4(C)CCCN4C)n3c2)c2ccccc21 [Example 50, 1-(5-(tert-Butyl)-2-methylpyridin-3-yl)-3-((1S,4R)-4-((3-((S)-1,2-dimethylpyrrolidin-2-yl)-[1,2,4]triazolo[4,3-a]pyridin-6-yl)oxy)-1,2,3,4-tetrahydronaphthalen-1-yl)urea] | < 1 | < 1 |
| CN1CCC[C@@]1(C)c1nnc2ccc(O[C@@H]3CC[C@H](NC(=O)Nc4cc(CO)nc(C(C)(C)C)c4)c4ccccc43)cn12 [Example 51, 1-(2-(tert-Butyl)-6-(hydroxymethyl)pyridin-4-yl)-3-((1S,4R)-4-((3-((S)-1,2-dimethylpyrrolidin-2-yl)-[1,2,4]triazolo[4,3-a]pyridin-6-yl)oxy)-1,2,3,4-tetrahydronaphthalen-1-yl)urea] | < 1 | < 1 |
| COc1ncc(C(C)(C)C)cc1NC(=O)N[C@H]1CC[C@@H](Oc2ccc3nnc([C@]4(C)CCCN4C)n3c2)c2ccccc21 [Example 52, 1-(5-(tert-Butyl)-2-methoxypyridin-3-yl)-3-((1S,4R)-4-((3-((S)-1,2-dimethylpyrrolidin-2-yl)-[1,2,4]triazolo[4,3-a]pyridin-6-yl)oxy)-1,2,3,4-tetrahydronaphthalen-1-yl)urea] | 1 to 10 | < 1 |
| CNC(=O)c1cc(NC(=O)N[C@H]2CC[C@@H](Oc3ccc4nnc([C@]5(C)CCCN5C)n4c3)c3ccccc32)cc(C(C)(C)C)n1 [Example 53, 6-(tert-Butyl)-4-(3-((1S,4R)-4-((3-((S)-1,2-dimethylpyrrolidin-2-yl)-[1,2,4]triazolo[4,3-a]pyridin-6-yl)oxy)-1,2,3,4-tetrahydronaphthalen-1-yl)ureido)-N-methylpicolinamide] | 1 to 10 | 1 to 5 |
| COCC(C)(C)c1nnc2ccc(O[C@@H]3CC[C@H](NC(=O)Nc4cc(C(C)(C)C)nc(C(=O)NCCN(C)C)n4)c4ccccc43)cn12 [Example 54, 4-(tert-Butyl)-N-(2-(dimethylamino)ethyl)-6-(3-((1S,4R)-4-((3-(methoxy-2-methylpropan-2-yl)-[1,2,4]triazolo[4,3-a]pyridin-6-yl)oxy)-1,2,3,4-tetrahydronaphthalen-1-yl)ureido)pyrimidine-2-carboxamide] | < 1 | 1 to 5 |
| CN(C)CCNC(=O)c1nc(NC(=O)N[C@H]2CC[C@@H](Oc3ccc4nnc(C5(C)COC5)n4c3)c3ccccc32)cc(C(C)(C)C)n1 [Example 55, 4-(tert-Butyl)-N-(2-(dimethylamino)ethyl)-6-(3-((1S,4R)-4-((3-(3-methyloxetan-3-yl)-[1,2,4]triazolo[4,3-a]pyridin-6-yl)oxy)-1,2,3,4-tetrahydronaphthalen-1-yl)ureido)pyrimidine-2-carboxamide] | 1 to 10 | > 5 |
| CO[C@@H](C)c1nnc2ccc(O[C@@H]3CC[C@H](NC(=O)Nc4cc(C(C)(C)C)nc(C(=O)NCCN(C)C)n4)c4ccccc43)cn12 [Example 56, 4-(tert-Butyl)-N-(2-(dimethylamino)ethyl)-6-(3-((1S,4R)-4-((3-((S)-1-methoxyethyl)-[1,2,4]triazolo[4,3-a]pyridin-6-yl)oxy)-1,2,3,4-tetrahydronaphthalene-1-yl)ureido)pyrimidin-2-carboxamide] | 1 to 10 | > 5 |
| COC(C)(C)c1nnc2ccc(O[C@@H]3CC[C@H](NC(=O)Nc4cc(COCCN5CCOCC5)nc(C(C)(C)C)c4)c4ccccc43)cn12 [Example 57] | 1 to 10 | > 5 |
| CN(C)CCNC(=O)c1cc(C(C)(C)C)cc(NC(=O)N[C@H]2CC[C@@H](Oc3ccc4nnc(C(C)(C)C)n4c3)c3ccccc32)n1 [Example 58, 4-(tert-Butyl)-6-(3-((1S,4R)-4-((3-(tert-butyl)-[1,2,4]triazolo[4,3-a]pyridin-6-yl)oxy)-1,2,3,4-tetrahydronaphthalen-1-yl)ureido)-N-(2-(dimethylamino)ethyl)picolinamide] | < 1 | 1 to 5 |
| CN(C)CCNC(=O)c1nc(NC(=O)N[C@H]2CC[C@@H](Oc3ccc4nnc(CC(C)(C)C)n4c3)c3ccccc32)cc(C(C)(C)C)n1 [Example 59, 4-(tert-Butyl)-N-(2-(dimethylamino)ethyl)-6-(3-((1S,4R)-4-((3-neopentyl-[1,2,4]triazolo[4,3-a]pyridin-6-yl)oxy)-1,2,3,4-tetrahydronaphthalen-1-yl)ureido)pyrimidine-2-carboxamide] | 1 to 10 | > 5 |
| CC(C)Cc1nnc2ccc(O[C@@H]3CC[C@H](NC(=O)Nc4cc(C(C)(C)C)nc(C(=O)NCCO)n4)c4ccccc43)cn12 [Example 60, 4-(tert-Butyl)-N-(2-hydroxyethyl)-6-(3-((1S,4R)-4-((3-isobutyl-[1,2,4]triazolo[4,3-a]pyridin-6-yl)oxy)-1,2,3,4-tetrahydronaphthalen-1-yl)ureido)pyrimidine-2-carboxamide] | < 1 | 1 to 5 |
